Data set [1] has as its system B16-F10 (murine melanoma) cells. Put plainly: sulforhodamine B (SRB) cytotoxicity assay, B16-F10. The format is cell-based. The source says:
[Worded in the source for another cell line; this cell line is reported under the same test.] (§1) MCF7 (ATCC HTB-22, breast adenocarcinoma), 786-0 (ATCC CRL-1932, renal cell adenocarcinoma), PC-03 (ATCC CRL-1435, prostatic adenocarcinoma), HT-29 (ATCCHTB-38, colorectal adenocarcinoma), and HEP2 (ATCC CCL-23, laryngeal carcinoma) cells donated by Dr. João Ernesto de Carvalho (CPQBA – UNICAMP), and NIH/3T3 cells (ATCC CRL-1658, mouse embryonic fibroblast), purchased from the Rio de Janeiro Cell Bank, were used for the evaluation of cytotoxic activity. Cell maintenance and treatment were performed as described by Freshney. The sulforhodamine B (SRB) assay was carried out according to Brandão et al. and Bogo et al..
(§2) The selectivity index (SI) measures a compound’s ability to target a neoplastic cell line rather than a normal cell line, indicating its potential for use in clinical trials. In the present study, the SI of each substance was calculated as the quotient of its GI50 value for normal NIH/3T3 cells divided by the GI50 value for a neoplastic cell line. SI values greater than 3.0 were considered significant.
For orientation: In SRB staining, fixed cells bind dye roughly in proportion to their protein.

Data set [2] deals with NIH/3T3 (mouse embryonic fibroblast) cells. As to the kind of experiment: sulforhodamine B (SRB) cytotoxicity assay, NIH/3T3 normal cells. The format is cell-based. The following applies: Mus musculus, NIH3T3; NIH/3T3 normal cells, SRB assay; read-out: growth inhibition (GI50).
Text: as §1, §2

Data set [3] has as its system HEP2 (laryngeal carcinoma) cells. Put plainly: sulforhodamine B (SRB) cytotoxicity assay, HEP2. Format: cell-based.
Text: as §1, §2

Data set [4] deals with UACC-62 (human melanoma) cells. As to the kind of experiment: sulforhodamine B (SRB) cytotoxicity assay, UACC-62. Format: cell-based.
Text: [Worded in the source for another cell line; this cell line is reported under the same test.] as §1, §2

For data set [5], the system named is MCF7 (breast carcinoma) cells. As to the kind of experiment: sulforhodamine B (SRB) cytotoxicity assay, MCF7. Format: cell-based.
Text: as §1, §2

Data set [6] has as its system PC-03 (prostate carcinoma) cells. As to the kind of experiment: sulforhodamine B (SRB) cytotoxicity assay, PC-03. The format is cell-based.
Text: as §1, §2

The subject of data set [7] is 786-0 (kidney carcinoma) cells. Put plainly: sulforhodamine B (SRB) cytotoxicity assay, 786-0. Format: cell-based.
Text: as §1, §2

Data set [8] relates to HT-29 (colon carcinoma) cells. Put plainly: sulforhodamine B (SRB) cytotoxicity assay, HT-29. Format: cell-based.
Text: as §1, §2

Data set [9] relates to UACC-62 (human melanoma) cells. The following applies: cited from earlier work; for selectivity index (SI): 3T3 vs UACC-62.
Data set [10] concerns MCF-10A mammary epithelial cells. Further details: method as in PMID 26744260. The following applies: cited from earlier work.
Data set [11] concerns HEP2 (laryngeal carcinoma) cells. Also on record: method as in Bogo et al. (2020). Conditions: ref Bogo et al. (2020), cited from earlier work.
The test system of data set [12] is PC-03 (prostate carcinoma) cells. Further details: method as in Bogo et al. (2020). Conditions: ref Bogo et al. (2020), cited from earlier work.
For data set [13], the system named is MCF7 (breast carcinoma) cells. Further details: method as in Bogo et al. (2020). Conditions: ref Bogo et al. (2020), cited from earlier work.
The test system of data set [14] is B16-F10 (murine melanoma) cells. Further details: method as in Brandão et al. (2013). Conditions: ref Brandão et al. (2013), cited from earlier work.
In data set [15] the test system is TNBC MDA-MB-231 cells. Also on record: method as in PMID 26744260. The following applies: cited from earlier work.
Data set [16] concerns MDA-MB-231/GFP cells implanted into athymic female nude mice. Also on record: method as in PMID 26744260. Conditions: cited from earlier work.
The subject of data set [17] is NIH/3T3 (mouse embryonic fibroblast) cells. Also on record: method as in Bogo et al. (2020). Conditions: NIH/3T3 normal cells; ref Bogo et al. (2020); read-out: growth inhibition (GI50); cited from earlier work.
The test system of data set [18] is tested tumor cells (786-0, MCF7, HT-29, PC-03, HEP2, B16-F10, UACC-62). Conditions: cited from earlier work; for cytotoxic activity in words: panel of tumor cells.
In data set [19] the test system is HT-29 (colon carcinoma) cells. Further details: method as in Bogo et al. (2020). Conditions: ref Bogo et al. (2020), cited from earlier work.
For data set [20], the system named is 786-0 (kidney carcinoma) cells. Further details: method as in Bogo et al. (2020). Conditions: ref Bogo et al. (2020), cited from earlier work.

The values that follow come from paper PMC11539907, “Cytotoxicity of norstictic acid derivatives, a depsidone from Ramalina anceps Nyl” (Turkish Journal of Chemistry, 2024).

Read-outs that look alike come from different tables or passages of the source. Some results are limits rather than exact numbers.

For the compound `COc1cccc2c1C(=O)c1c(O)c3c(c(O)c1C2=O)C[C@@](O)(C(=O)CO)C[C@@H]3O[C@H]1C[C@H](N)[C@H](O)[C@H](C)O1` [Doxorubicin, reference compound], the “selectivity index (SI)” value in [1] (GI50 on 3T3 cells divided by GI50 on B16-F10) is given as 1.28; in [3] (GI50 on 3T3 cells divided by GI50 on HEP2), 0.84; in data set [4] (GI50 on 3T3 cells divided by GI50 on UACC-62), 4.5; in data set [5] (GI50 on 3T3 cells divided by GI50 on MCF7), 6.4; in data set [6] (GI50 on 3T3 cells divided by GI50 on PC-03) it was 16.0; in [7] (GI50 on 3T3 cells divided by GI50 on 786-0), 1.23. Further, the “selectivity index (SI)” value is reported as 1.23 in data set [8] (GI50 on 3T3 cells divided by GI50 on HT-29) and 1.2 in data set [9] (ref Brandão et al. (2013)). Further, the concentration for 50% growth inhibition (GI50) in [1] (Mus musculus, B16-F10 cells, SRB assay, read-out: growth inhibition (GI50)) was 0.43 µM; in [2], 0.55 µM; in data set [3] (Homo sapiens, HEp-2, HEP2 cells, SRB assay, read-out: growth inhibition (GI50)), 0.65 µM; in data set [4] (Homo sapiens, UACC-62 cells, SRB assay, read-out: growth inhibition (GI50)) it was 0.12 µM; in data set [5] (Homo sapiens, MCF7 cells, SRB assay, read-out: growth inhibition (GI50)) it was 0.086 µM; in data set [6] (PC-03 cells, SRB assay, read-out: growth inhibition (GI50)), 0.034 µM. For the same compound, the GI50 in data set [7] (Homo sapiens, 786-0 cells, SRB assay, read-out: growth inhibition (GI50)) was determined as 0.43 µM; in [8] (Homo sapiens, HT-29 cells, SRB assay, read-out: growth inhibition (GI50)), 0.43 µM.

In the case of `Cc1cc(O)c(C=O)c2c1C(=O)Oc1c(C)c(O)c3c(c1O2)C(O)OC3=O` (centres unmarked) [compound 1, Norstictic acid], in data set [10], the “toxicity to nontumorogenic cells in words” value is reported as “minimal toxicity”. Also, the “selectivity index (SI)” value in data set [11] (3T3 vs HEP2) is recorded as 4.4; in data set [12] (3T3 vs PC-03 (PC-3)) it was 3.6; in data set [13] (3T3 vs MCF7), 4.3; in data set [14] (3T3 vs B16-F10) it was >4.1; in data set [9] (ref Brandão et al. (2013)), >7.6; in data set [19] (3T3 vs HT-29, from literature GI50 values) it was 0.7. Moreover, the “selectivity index (SI)” value in data set [20] (3T3 vs 786-0, from literature GI50 values) was 0.9. The GI50 in data set [11] (HEP2 cells, read-out: growth inhibition (GI50)) is 157 µM; in data set [12] (PC-03 cells, read-out: growth inhibition (GI50)), 191 µM; in data set [13] (MCF7 cells, read-out: growth inhibition (GI50)), 162 µM; in [14] (B16-F10 cells, read-out: growth inhibition (GI50)), 168 µM; in data set [17], 696 µM; in [18] (MCF7, HEP2, PC-03, B16-F10, and UACC-62 cells, ref Bogo et al. (2020), Brandão et al. (2013), read-out: GI50, range) it was 88.4 to 191 µM. Moreover, the GI50 in data set [9] (UACC-62 cells, ref Brandão et al. (2013), read-out: growth inhibition (GI50)) was 88.4 µM; in [19] (HT-29 cells, read-out: growth inhibition (GI50)), 916 µM; in data set [20] (786-0 cells, read-out: growth inhibition (GI50)), 759 µM. In addition, the “proliferation, migration, and invasion in words” value in data set [15] is “significantly suppressed the proliferation, migration, and invasion”. For the same compound, the “in vivo effect on tumor growth in words” value in [16] was “tolerability and significant inhibitory effect”. In addition, the “cytotoxic activity in words” value in data set [18] (listed as Norstictic acid) was “poor activity”; in [18] (listed as norstictic acid), “low cytotoxic activity”. In addition, the “growth inhibition effect (GI50)” value in data set [9] (UACC-62 human melanoma cells) was 32.9 µg/mL.

One may read the GI50 as the concentration giving 50% growth inhibition.
